Assay results reported in patent US10022352B2, “Modulators of ATP-binding cassette transporters” (Vertex Pharmaceuticals Incorporated, priority 2006, dated 2018).
Where two headings read alike, the source gives them in different places.

Experiments:
ΔF508-CFTR = ΔF508-CFTR (Homo sapiens (Human), UniProt P13569, DEL508-508); experiment: Membrane potential optical assay, identification of correction compounds; assay type: cell-based
Excerpt: Membrane potential optical methods for assaying ΔF508-CFTR modulation properties of compounds.
The assay utilizes fluorescent voltage sensing dyes to measure changes in membrane potential using a fluorescent plate reader (e.g., FLIPR II, Molecular Devices, Inc.) as a readout for increase in functional ΔF508-CFTR in NIH 3T3 cells. The driving force for the response is the creation of a chloride ion gradient in conjunction with channel activation by a single liquid addition step after the cells have previously been treated with compounds and subsequently loaded with a voltage sensing dye.
Identification of Correction Compounds
To identify small molecules that correct the trafficking defect associated with ΔF508-CFTR; a single-addition HTS assay format was developed. Assay Plates containing cells are incubated for ˜2-4 hours in tissue culture incubator at 37° C., 5% CO2, 90% humidity. Cells are then ready for compound exposure after adhering to the bottom of the assay plates.
The cells were incubated in serum-free medium for 16-24 hrs in tissue culture incubator at 37° C., 5% CO2, 90% humidity in the presence or absence (negative control) of test compound. The cells were subsequently rinsed 3× with Krebs Ringers solution and loaded with a voltage sensing redistribution dye. To activate ΔF508-CFTR, 10 μM forskolin and the CFTR potentiator, genistein (20 μM), were added along with Cl^−-free medium to each well. The addition of Cl^−-free medium promoted Cl^− efflux in response to ΔF508-CFTR activation and the resulting membrane depolarization was optically monitored using voltage sensor dyes.
Bath #1: (in mM) NaCl 160, KCl 4.5, CaCl2 2, MgCl2 1, HEPES 10, pH 7.4 with NaOH.
free bath solution: Chloride salts in Bath Solution #1 are substituted with gluconate salts.
NIH3T3 fibroblasts stably expressing ΔF508-CFTR are used for optical measurements of membrane potential. The cells are maintained at 37° C. in 5% CO2 and 90% humidity in Dulbecco's modified Eagle's medium supplemented with 2 mM glutamine, 10% fetal bovine serum, 1×NEAA, β-ME, 1× pen/strep, and 25 mM HEPES in 175 cm^2 culture flasks. For all optical assays, the cells were seeded at ˜20,000/well in 384-well matrigel-coated plates and cultured for 2 hrs at 37° C. before culturing at 27° C. for 24 hrs. for the potentiator assay. For the correction assays, the cells are cultured at 27° C. or 37° C. with and without compounds for 16-24 hours. Electrophysiological Assays for assaying ΔF508-CFTR modulation properties of compounds.

Solubility in water = assay type: physicochemical

ΔF508-CFTR, sequence (P13569 other isoform, or with tags, fused parts or gaps del F508-F508): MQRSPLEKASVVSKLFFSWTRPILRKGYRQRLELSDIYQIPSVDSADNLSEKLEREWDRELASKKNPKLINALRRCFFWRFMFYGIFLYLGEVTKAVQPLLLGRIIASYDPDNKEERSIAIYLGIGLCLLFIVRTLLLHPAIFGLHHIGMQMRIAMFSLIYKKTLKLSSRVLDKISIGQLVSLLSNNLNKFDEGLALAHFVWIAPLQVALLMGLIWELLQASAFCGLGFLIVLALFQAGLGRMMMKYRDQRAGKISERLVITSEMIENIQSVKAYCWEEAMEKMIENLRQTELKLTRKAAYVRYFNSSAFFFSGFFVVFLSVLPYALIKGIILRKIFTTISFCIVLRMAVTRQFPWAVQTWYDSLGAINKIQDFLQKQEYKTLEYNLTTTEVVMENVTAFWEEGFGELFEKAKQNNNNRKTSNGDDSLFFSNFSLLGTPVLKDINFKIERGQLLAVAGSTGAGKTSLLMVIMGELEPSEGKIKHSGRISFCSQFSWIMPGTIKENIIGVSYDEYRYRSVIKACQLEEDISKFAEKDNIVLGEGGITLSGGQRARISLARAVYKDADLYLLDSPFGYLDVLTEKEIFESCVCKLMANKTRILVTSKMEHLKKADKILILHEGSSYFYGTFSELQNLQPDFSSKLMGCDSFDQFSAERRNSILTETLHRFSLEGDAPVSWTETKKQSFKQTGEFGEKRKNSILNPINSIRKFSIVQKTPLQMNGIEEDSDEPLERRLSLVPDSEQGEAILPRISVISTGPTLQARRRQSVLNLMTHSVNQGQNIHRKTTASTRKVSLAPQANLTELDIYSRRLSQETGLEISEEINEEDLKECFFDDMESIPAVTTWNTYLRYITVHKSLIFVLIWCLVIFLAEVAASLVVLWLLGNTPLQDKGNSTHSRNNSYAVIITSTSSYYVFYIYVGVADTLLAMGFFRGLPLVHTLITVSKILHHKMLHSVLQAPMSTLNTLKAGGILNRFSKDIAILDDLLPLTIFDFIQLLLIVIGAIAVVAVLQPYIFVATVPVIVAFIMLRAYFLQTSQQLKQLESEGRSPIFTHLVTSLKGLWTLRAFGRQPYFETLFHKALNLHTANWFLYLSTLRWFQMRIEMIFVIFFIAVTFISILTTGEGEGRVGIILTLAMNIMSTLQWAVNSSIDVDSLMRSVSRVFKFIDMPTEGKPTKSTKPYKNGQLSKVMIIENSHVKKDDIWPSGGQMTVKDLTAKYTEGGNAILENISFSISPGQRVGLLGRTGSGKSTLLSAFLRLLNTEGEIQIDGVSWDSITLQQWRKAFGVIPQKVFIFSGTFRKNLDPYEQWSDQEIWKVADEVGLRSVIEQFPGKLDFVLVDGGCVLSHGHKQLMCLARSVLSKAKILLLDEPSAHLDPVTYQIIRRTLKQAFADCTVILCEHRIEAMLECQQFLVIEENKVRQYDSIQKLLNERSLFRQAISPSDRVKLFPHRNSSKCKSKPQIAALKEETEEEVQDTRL

Row | EC50 (ΔF508-CFTR; read-out: Binned EC50) [nM] | Emax (ΔF508-CFTR; read-out: Binned Max Efficacy) [%] | EC50 (ΔF508-CFTR; read-out: EC50) [nM] | Emax (ΔF508-CFTR; read-out: Max Efficacy) [%] | Binned Max Efficacy (ΔF508-CFTR) | Max Efficacy (ΔF508-CFTR) [%] | solubility (Solubility in water) [µg/mL] | SMILES
1 | < 2000 | > 100 | 272 | 106 | – | – | – | CC(C)(CO)c1cc2cc(NC(=O)C3(c4ccc5c(c4)OC(F)(F)O5)CC3)c(F)cc2n1C[C@@H](O)CO [Compound 315]
2 | < 2000 | > 100 | 285 | 126 | – | – | – | CC(C)(CCOC[C@@H](O)CO)c1cc2cc(NC(=O)C3(c4ccc5c(c4)OC(F)(F)O5)CC3)c(F)cc2[nH]1 [Compound 316]
3 | 2000 to 5000 | 25 to 100 | 4520 | 65.5 | – | – | – | COc1ccc(C2(C(=O)Nc3ccc4[nH]c(C(C)(C)C)cc4c3)CC2(C)C)cc1 (stereo not shown) [Compound 317]
4 | < 2000 | > 100 | 65.9 | 132 | – | – | – | CC(C)(C)c1cc2cc(NC(=O)C3(c4ccc5c(c4)OCO5)CC3)c(F)cc2n1C[C@@H](O)CO [Compound 318]
5 | < 2000 | > 100 | 39.1 | 126 | – | – | – | COc1ccc(C2(C(=O)Nc3ccc4c(c3)cc(C(C)(C)C)n4C[C@@H](O)CO)CC2(C)C)cc1 (stereo partly shown) [Compound 319]
6 | 2000 to 5000 | 25 to 100 | 4320 | 94 | – | – | – | CC(C)(CO)c1cc2cc(NC(=O)C3(c4ccc5c(c4)OC(F)(F)O5)CC3)c(F)cc2[nH]1 [Compound 320]
7 | < 2000 | 25 to 100 | 1810 | 76 | – | – | – | CC(C)(C)c1cc2cc(NC(=O)C3(c4ccc(O)c(O)c4)CC3)ccc2n1C[C@@H](O)CO [Compound 321]
8 | – | – | – | – | – | – | < 0.05 | CC(C)(C)c1cc(C(C)(C)C)c(NC(=O)c2c[nH]c3ccccc3c2=O)cc1O [Compound B, N-(2,4-di-tert-butyl-5-hydroxyphenyl)-4-oxo-1,4-dihydroquinoline-3-carboxamide]

More lines, now with the values behind:

Row | SMILES | EC50 (ΔF508-CFTR; read-out: Binned EC50) [nM] | Emax (ΔF508-CFTR; read-out: Binned Max Efficacy) [%] | EC50 (ΔF508-CFTR; read-out: EC50) [nM] | Emax (ΔF508-CFTR; read-out: Max Efficacy) [%] | Binned Max Efficacy (ΔF508-CFTR) | Max Efficacy (ΔF508-CFTR) [%] | solubility (Solubility in water) [µg/mL]
9 | CC(C)(C)c1cc2cc(NC(=O)C3(c4ccc5c(c4)CCC5)CC3)ccc2n1C[C@@H](O)CO [Compound 307] | < 2000 | > 100 | 981 | 160 | – | – | –
10 | CC(C)(CCOC[C@@H](O)CO)c1cc2cc(NC(=O)C3(c4ccc5c(c4)OC(F)(F)O5)CC3)c(F)cc2n1C[C@@H](O)CO [Compound 308] | 2000 to 5000 | > 100 | 3100 | 100 | – | – | –
11 | CN(C)CCn1c(C(C)(C)C)cc2cc(NC(=O)C3(c4ccc5c(c4)OC(F)(F)O5)CC3)c(F)cc21 [Compound 309] | < 2000 | – | 38.1 | – | +++ (“+++” means >100%) | 122 | –
12 | CC(C)(C)c1cc2cc(NC(=O)C3(c4ccc5c(c4)OCO5)CC3)c(F)cc2n1C[C@@H](O)CO [Compound 310] | < 2000 | – | 160 | – | +++ (“+++” means >100%) | 120.5 | –
13 | CC(C)(CCO)c1cc2cc(NC(=O)C3(c4ccc5c(c4)OC(F)(F)O5)CC3)c(F)cc2n1C[C@@H](O)CO [Compound 311] | < 2000 | > 100 | 81.8 | 126 | – | – | –
14 | CC(C)(C)c1cc2c(C#N)c(NC(=O)C3(c4ccc5c(c4)OC(F)(F)O5)CC3)ccc2n1CCO [Compound 312] | < 2000 | > 100 | 181 | 118 | – | – | –
15 | CC(C)(C)c1cc2c(C#N)c(NC(=O)C3(c4ccc5c(c4)OC(F)(F)O5)CC3)ccc2[nH]1 [Compound 313] | < 2000 | > 100 | 284 | 102 | – | – | –
16 | CC1(C)CCn2c1cc1cc(NC(=O)C3(c4ccc5c(c4)OC(F)(F)O5)CC3)c(F)cc12 [Compound 314] | < 2000 | > 100 | 228 | 124 | – | – | –
